Series [1] can be described thus: Kinetic solubility in 50 mM phosphate buffer pH 7.4. The format is physicochemical. The settings on record: aqueous buffer, kinetic from dmso stock, 50 mM phosphate buffer pH 7.4, 2% DMSO, room temperature. The protocol: (§1) 50 mM phosphate buffer pH=7.4: 0.39 g of NaH2PO4.2H2O, and 1.4025 g of Na2HPO4 were weighted and placed in an erlenmeyer flask, 240 mL of water was added. The solid was dissolved and mixed thoroughly, the pH value was adjusted to 7.4 with 10M NaOH solution, and the resulting solution was transferred to a 250 mL volumetric flask, followed by adding water to the mark.
(§2) Waters e2695 HPLC high performance liquid chromatography, Mettler XSE105 analytical balance.
(§3) Firstly, a 10 mM stock solution with DMSO as the solvent was prepared, and was diluted with a diluent (ACN: PB buffer 50:50) into 1 μM-200 μM as standard solution.
Kinetic solubility. 30 μL of the stock solution was placed in a 2 mL centrifuge tube, 1470 μL of 50 mM phosphate buffer (pH 7.4) (containing DMSO at a final concentration of 2%) was added. The mixture was shaken at room temperature (1000 rpm/min) for 24 hours, and then filtered. The filtrate was tested by high performance liquid chromatography (UV).

The target of the next series is T1, α5-GABAA receptor (Homo sapiens, UniProt P18507+P31644).
T1 construct: expressed in transfected cells; host or cells: HEK-293 (monoclonal, stably transfected)
Briefly: Whole cell patch clamp, inverse agonism efficacy on GABA-induced current in HEK-293 cells expressing α5-GABAA receptor. The format is cell-based. To be noted: HEK293; compound 100 nM, GABA 0.05 μM; ratio to reference compound Example 7 in CN106854207A in the same batch. As to the method: The inventors used electrophysiological methods to determine the inverse agonist efficacy of the substances to be tested. The detailed procedures are as follows:
(1) Different subunits of GABAA receptors were expressed in human embryonic kidney cells 293 (HEK293). The cells were cultured in a culture medium and used as a cell model for screening potential analgesics. The α, β and γ subunits are necessary to form complete functional GABAA receptors. In this example, the inventors have established the following cell model: (a) α5 subunit (protein sequence is GenBank accession number: NM_000810.3), (33 subunit (protein sequence is GenBank accession number: NM_000814.5) and γ2 subunit (protein sequence is GenBank accession number: NM_000816.3) were expressed in HEK-293 cell line at the same time, followed by screening the monoclonal cell line. This cell line contained α5-GABAA receptor and had complete GABAA receptor function.
(2) The monoclonal stably transfected HEK-293 cells expressing α5-GABAA receptor were cultured in 10 cm culture dishes. The cells were passaged after reaching 80-90% confluence. During passaging, the culture medium was removed and discarded, 3 mL of DPBS (phosphate buffered saline, Gibco™) was added to the dishes, the dishes were shaken slightly, and DPBS was removed and discarded. 1 mL of trypsin (TrypLE Express, Gibco™) was added and the cells were digested at 37° C. for 1-2 minutes. Then 3 mL of complete medium (DMEM+10% FBS (Gibco™)) was added and the cells at the bottom of the culture dishes were dispersed. The cell suspension were transferred to a 15 mL centrifugal tube (Corning™) and then centrifuged at 200 g for 3 minutes. The supernatant was discarded, 4 mL of complete medium was added, and the cells were resuspended by gently blowing. The cell suspension was diluted by 1:5 or 1:10 for subculturing. The cell suspension was diluted by 1:12 for electrophysiology experiment, and added to a 24 well plate (Corning™) with a glass slide pre-treated with poly-D-lysine placed thereon; the experiment was initiated after the cells were adhered to the slide. The cells for electrophysiology experiment were maintained in culture for no more than 48 hours before use.
(3) Compound concentration: for screening, all compounds were diluted to a final concentration of 100 nM and the concentration of GABA was 0.05 μM. The compounds were at the concentration of 0.3 nM, 3 nM, 10 nM, 30 nM, 100 nM and 300 nM in dose-inverse agonism efficacy (%) experiment. The whole cell patch clamp technique was used in electrophysiology experiments, which can refer to the literature (I. Lecker, Y. Yin, D. S. Wang and B. A. Orser, (2013) Potentiation of GABAA receptor activity by volatile anaesthetics is reduced by α5-GABAA receptor-preferring inverse agonists, British Journal of Anaesthesia 110 (S1): i73-i81). The extracellular solution (ECS) contained: 150 mM NaCl, 5 mM KCl, 2.5 mM CaCl2, 1 mM MgCl2, 10 mM HEPES and 10 mM glucose (pH 7.4); Patch electrodes were filled with an intracellular solution containing: 140 mM CsCl, 11 mM EGTA, 10 mM HEPES, 2 mM CaCl2, 1 mM MgCl2, 4 mM MgATP, 2 mM TEA (pH 7.3). The currents were recorded by an EPC-10 amplifier and the PatchMaster software (HEKA). Patch electrodes with a resistance of 4-6 MΩ were pulled from borosilicate glass. The ALA-VC3-8PP™ system was used for extracellular administration. Separate cells that grew independently was selected for recording. During recording, the membrane voltage was clamped at −60 mV. During experiment, the cells were firstly perfused with ECS for 20 seconds. When the baseline reached to a stable state, the cells were then perfused with GABA solution. Then the current induced by GABA could be detected. After about 20 to 40 seconds, the current was stable. ECS was switched to compounds solution and the effects of the compounds were detected. At last, the perfusion solution was switched to ECS. […]

A short description of series [2]: Thermodynamic solubility in 50 mM phosphate buffer pH 7.4. The format is physicochemical. The settings on record: aqueous buffer, thermodynamic from solid, 50 mM phosphate buffer pH 7.4, room temperature. The protocol: as §1, §2, §3
Thermodynamic solubility. About 1 mg of the sample was weighted, 1.5 mL of 50 mM phosphate buffer (pH 7.4) was added thereto, and the mixture was shaken at room temperature for 24 hours to ensure that the solution reached a state of saturation. The solution was then filtered, and the filtrate was tested with high-performance liquid chromatography (UV).

In brackets after ≈: the same amount, converted by molar mass.

T1 sequence (P31644 32-462): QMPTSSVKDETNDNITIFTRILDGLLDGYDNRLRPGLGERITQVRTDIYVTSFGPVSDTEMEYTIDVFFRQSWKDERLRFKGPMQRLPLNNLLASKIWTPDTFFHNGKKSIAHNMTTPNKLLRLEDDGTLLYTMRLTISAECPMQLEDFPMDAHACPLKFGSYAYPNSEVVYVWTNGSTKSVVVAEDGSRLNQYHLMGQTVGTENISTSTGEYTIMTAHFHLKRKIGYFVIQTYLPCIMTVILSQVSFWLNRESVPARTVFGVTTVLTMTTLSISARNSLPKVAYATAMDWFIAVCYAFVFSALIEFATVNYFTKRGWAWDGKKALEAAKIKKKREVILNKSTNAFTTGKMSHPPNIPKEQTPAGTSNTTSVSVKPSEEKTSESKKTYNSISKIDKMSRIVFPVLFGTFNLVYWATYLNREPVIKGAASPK
T1 sequence (P28472 26-473 partner): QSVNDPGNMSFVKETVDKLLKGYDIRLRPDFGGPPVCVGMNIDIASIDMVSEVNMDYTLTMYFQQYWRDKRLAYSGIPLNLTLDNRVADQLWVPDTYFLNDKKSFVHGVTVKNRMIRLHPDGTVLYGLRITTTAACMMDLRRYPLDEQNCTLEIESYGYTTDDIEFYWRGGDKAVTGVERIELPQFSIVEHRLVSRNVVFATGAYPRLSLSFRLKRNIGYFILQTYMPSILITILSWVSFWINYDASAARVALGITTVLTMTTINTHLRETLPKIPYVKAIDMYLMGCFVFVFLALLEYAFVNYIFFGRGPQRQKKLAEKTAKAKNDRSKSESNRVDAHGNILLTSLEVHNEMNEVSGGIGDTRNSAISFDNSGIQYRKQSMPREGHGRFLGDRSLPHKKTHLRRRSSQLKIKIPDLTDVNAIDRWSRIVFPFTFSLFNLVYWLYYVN
T1 sequence (P18507 40-467 isoform P18507-1 limits assumed): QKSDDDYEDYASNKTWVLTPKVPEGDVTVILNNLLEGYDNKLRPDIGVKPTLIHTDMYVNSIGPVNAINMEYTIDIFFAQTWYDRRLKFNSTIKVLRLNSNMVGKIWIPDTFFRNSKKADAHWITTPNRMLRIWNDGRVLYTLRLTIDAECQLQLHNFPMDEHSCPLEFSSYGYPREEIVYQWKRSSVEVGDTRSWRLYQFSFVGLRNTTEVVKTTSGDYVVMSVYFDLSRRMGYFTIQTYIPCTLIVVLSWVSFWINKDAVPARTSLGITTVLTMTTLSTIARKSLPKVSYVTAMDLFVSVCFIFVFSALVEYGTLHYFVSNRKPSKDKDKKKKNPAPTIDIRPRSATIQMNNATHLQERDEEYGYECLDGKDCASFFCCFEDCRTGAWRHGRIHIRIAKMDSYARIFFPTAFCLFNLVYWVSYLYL

The compound `COCc1cc(-c2nnc3c4ccccc4c(OCc4ccc(C(=O)N[C@@H](C)COC)cn4)nn23)no1` [Compound 05, (S)—N-(2-methoxy-1-methyl-ethyl)-6-[3-(5-methoxymethyl-isoxazol-3-yl)-[1,2,4]triazolo[3,4-a]phthalazin-6-yloxymethyl]-nicotinamide] yielded a solubility (kinetic) at 24 h in series [1] of 25.6 µg/mL (≈ 50.7 µM). Besides, the Emax at 0.1 µM on α5-GABAA receptor worked out at 90%.
For `COCc1cc(-c2nnc3c4ccccc4c(OCc4ccc(C(=O)NC[C@@H]5CCCO5)cn4)nn23)no1` [Compound 06, (S)-6-[3-(5-methoxymethyl-isoxazol-3-yl)-[1,2,4]triazolo[3,4-a]phthalazin-6-yloxymethyl]-N-(tetrahydro-furan-2-ylmethyl)-nicotinamide], in series [1], the kinetic solubility at 24 h came out at 13.6 µg/mL (≈ 26.4 µM). The maximal response (Emax) at 0.1 µM on α5-GABAA receptor was determined as 74.9%.
Compound `COCCNC(=O)c1ccc(COc2nn3c(-c4cc(COC)on4)nnc3c3ccccc23)nc1` [Compound 07, N-(2-methoxy-ethyl)-6-[3-(5-methoxymethyl-isoxazol-3-yl)-[1,2,4]triazolo[3,4-a]phthalazin-6-yloxymethyl]-nicotinamide] returned a solubility (kinetic) at 24 h in series [1] of 23.2 µg/mL (≈ 47.4 µM). In addition, the maximal effect (Emax) at 0.1 µM at α5-GABAA receptor was found to be 108%.
The like results for `COCc1cc(-c2nnc3c4ccccc4c(OCc4ccc(C(=O)NC(C)COC)cn4)nn23)no1` (stereo not shown) [Compound 10, N-(2-methoxy-1-methyl-ethyl)-6-[3-(5-methoxymethyl-isoxazol-3-yl)-[1,2,4]triazolo[3,4-a]phthalazin-6-yloxymethyl]-nicotinamide] were, in that order, 18.9 µg/mL (≈ 37.6 µM) and 103%.
In the case of `COCc1cc(-c2nnc3c4ccccc4c(OCc4ccc(C(=O)NCC(F)(F)F)cn4)nn23)no1` [Compound 15, N-(2,2,2-trifluoroethyl)-6-((3-(5-methoxymethylisoxazol-3-yl)-[1,2,4]triazolo[3,4-a]phthalazin-6-oxy)methylene)nicotinamide], in series [2], the solubility (thermodynamic) at 24 h came to 0.84 µg/mL (≈ 1.64 µM). Further, the kinetic solubility at 24 h in series [1] worked out at 0.77 µg/mL (≈ 1.5 µM).
Take `COCc1cc(-c2nnc3c4ccccc4c(OCc4ccc(C(=O)NCC5COC5)cn4)nn23)no1` [Compound 18]: the solubility (kinetic) at 24 h in series [1] turned out to be 10.8 µg/mL (≈ 21.4 µM). The Emax at 0.1 µM at α5-GABAA receptor was determined as 115%.
Compound `COCc1cc(-c2nnc3c4ccccc4c(OCc4ccc(C(=O)NCC5(C)COC5)cn4)nn23)no1` [Compound 20, N-((3-methyl(oxetanyl)-methyl)-6-{3-[5(methoxymethyl)isoxazol-3-yl]-[1,2,4]triazole[3,4-a]phthalazin-6-oxy)methylene}nicotinamide] came in with a kinetic solubility at 24 h in series [1] of 10.1 µg/mL (≈ 19.7 µM). At α5-GABAA receptor, the maximum response (Emax) at 0.1 µM worked out at 118%.
The matching figures for `COCc1cc(-c2nnc3c4ccccc4c(OCc4ccc(C(=O)NC5CCC5)cn4)nn23)no1` [Compound 23]: 9.11 µg/mL (≈ 18.8 µM) and 73.7%.
`COCc1cc(-c2nnc3c4ccccc4c(OCc4ccc(C(=O)NCC(F)F)cn4)nn23)no1` [Compound 24] yielded a solubility (thermodynamic) at 24 h in series [2] of 0.74 µg/mL (≈ 1.49 µM). Moreover, in series [1], the kinetic solubility at 24 h was found to be 1.39 µg/mL (≈ 2.81 µM).
As to `COCc1cc(-c2nnc3c4ccccc4c(OCc4ccc(C(=O)NCCC#N)cn4)nn23)no1` [Compound 28, N-(2-cyano-ethyl)-6-[3-(5-methoxymethyl-isoxazol-3-yl)-[1,2,4]triazolo[3,4-a]phthalazin-6-yloxymethyl]-nicotinamide], in series [1], the solubility (kinetic) at 24 h was 3.68 µg/mL (≈ 7.6 µM). Moreover, the Emax at 0.1 µM at α5-GABAA receptor is 133%.
For `COCc1cc(-c2nnc3c4ccccc4c(OCc4ccc(C(=O)NC(COC)COC)cn4)nn23)no1` [Compound 30], the kinetic solubility at 24 h in series [1] amounted to 6.85 µg/mL (≈ 12.8 µM). Also, the maximum response (Emax) at 0.1 µM at α5-GABAA receptor came out at 85.2%.
In the case of `COCc1cc(-c2nnc3c4ccccc4c(OCc4ccc(C(=O)NC56CC(C5)C6)cn4)nn23)no1` [Compound 31], the kinetic solubility at 24 h in series [1] was 4.19 µg/mL (≈ 8.42 µM). In addition, the Emax at 0.1 µM at α5-GABAA receptor was 95.1%.
In series [1], `COCc1cc(-c2nnc3c4ccccc4c(OCc4ccc(C(=O)NC5CN(C(C)=O)C5)cn4)nn23)no1` [Compound 32] displayed a solubility (kinetic) at 24 h of 29.7 µg/mL (≈ 56.3 µM). Moreover, the Emax at 0.1 µM on α5-GABAA receptor came to 89.1%.
As for `COCc1cc(-c2nnc3c4ccccc4c(OCc4ccc(C(=O)N5CC6(COC6)C5)cn4)nn23)no1` [Compound 39], the solubility (kinetic) at 24 h in series [1] came to 48.5 µg/mL (≈ 94.3 µM). The Emax at 0.1 µM on α5-GABAA receptor was 90.2%.
Regarding `COCc1cc(-c2nnc3c4ccccc4c(OCc4ccc(C(=O)N(C)CC5CC5)cn4)nn23)no1` [Compound 40], the solubility (kinetic) at 24 h in series [1] was 31.9 µg/mL (≈ 63.9 µM). On α5-GABAA receptor, the Emax at 0.1 µM was determined as 78.3%.
The matching figures for `COCc1cc(-c2nnc3c4ccccc4c(OCc4ccc(C(=O)N5C[C@@H]6C[C@H]5CO6)cn4)nn23)no1` [Compound 43]: 100 µg/mL (≈ 195 µM) and 86.9%.
For the compound `COCc1cc(-c2nnc3c4ccccc4c(OCc4ccc(C(=O)N5CCC(O)CC5)cn4)nn23)no1` [Compound 45], the kinetic solubility at 24 h in series [1] came out at 6.93 µg/mL (≈ 13.4 µM). In addition, the maximum response (Emax) at 0.1 µM on α5-GABAA receptor came out at 88.4%.
`COCc1cc(-c2nnc3c4ccccc4c(OCc4ccc(C(=O)N5CCOCC5C)cn4)nn23)no1` (stereo not shown) [Compound 47, (6-(((3-(5-(methoxymethyl)isoxazol-3-yl)-[1,2,4]triazolo[3,4-a]phthalazin-6-yl)oxy)methyl)pyridin-3-yl)(3-methylmorpholino)methanone]: in series [1], the solubility (kinetic) at 24 h amounted to 97.8 µg/mL (≈ 190 µM). Besides, the Emax at 0.1 µM on α5-GABAA receptor is 72.5%.
In the case of `COCc1cc(-c2nnc3c4ccccc4c(OCc4ccc(C(=O)N5CCCC5)cn4)nn23)no1` [Compound 48], in series [1], the kinetic solubility at 24 h was determined as 31.7 µg/mL (≈ 65.3 µM). Further, the maximum response (Emax) at 0.1 µM at α5-GABAA receptor amounted to 78.7%.
As to `COCc1cc(-c2nnc3c4ccccc4c(OCc4ccc(C(=O)N5CCCCC5)cn4)nn23)no1` [Compound 49, (6-(((3-(5-(methoxymethyl)isoxazol-3-yl)-[1,2,4]triazolo[3,4-a]phthalazin-6-yl)oxy)methyl)pyridin-3-yl)(piperidin-1-yl)methanone], at α5-GABAA receptor, the maximal response (Emax) at 0.1 µM came to 75.2%.
In series [1], `COCc1cc(-c2nnc3c4ccccc4c(OCc4ccc(C(=O)N5CCOC(C)C5)cn4)nn23)no1` (stereo not shown) [Compound 54] returned a kinetic solubility at 24 h of 97.9 µg/mL (≈ 190 µM). At α5-GABAA receptor, the Emax at 0.1 µM was determined as 77.5%.
The compound `COCc1cc(-c2nnc3c4ccccc4c(OCc4ccc(C(=O)N5CCC6(CC5)COC6)cn4)nn23)no1` [Compound 56, {6-[3-(5-methoxymethyl-isoxazol-3-yl)-[1,2,4]triazolo[3,4-a]phthalazin-6-yloxymethyl]-pyridin-3-yl}-(2-oxa-7-aza-spiro[3.5]non-7-yl)-methanone] gave a solubility (kinetic) at 24 h in series [1] of 12.5 µg/mL (≈ 23.1 µM). Further, at α5-GABAA receptor, the maximal response (Emax) at 0.1 µM came to 111%.

The values above are taken from patent US11512089B2, “Substituted [1,2,4]triazolo[3,4-a]phthalazines as modulators of GABAA receptor activity” (SHANGHAI SIMR BIOTECHNOLOGY CO., LTD, priority 2018, dated 2022).
